Results taken from patent US20250170126A1 (MITSUBISHI TANABE PHARMA CORPORATION, priority 2022, published 2025).

Biological target: Human B0AT1 (Homo sapiens (Human), UniProt Q695T7)
Test: hB0AT1 inhibitory test (phenylalanine uptake)
Format: cell-based
Conditions: Human B0AT1 stable expression CHO cells; [3H]-L-phenylalanine uptake, phenylalanine 0.25 mM
Description: A test compound dissolved in dimethyl sulfoxide (DMSO) was added to a 96 well plate for solid phase radioactivity measurement containing a scintillator at the bottom of the well (final concentration of DMSO 0.5%). DMSO alone as a control and DMSO containing N-(4-bromophenyl)-3,5-dichloro-2-hydroxybenzamide (final concentration […]) for the is measurement of B0AT1 non-specific uptake were similarly added at 0.5 μL per well. Human B0AT1 stable expression CHO cells suspended in a buffer (buffer containing 96 mM sodium chloride, 2 mM potassium chloride, 1.8 mM calcium chloride, 1 mM magnesium chloride, 0.01% bovine serum albumin, and 10 mM 2-[4-(2-hydroxyethyl)-1-piperazinyl]ethanesulfonic acid) were added by 90 μL to 75000 cells/well. After standing at ordinary temperature for 30 min or longer, the cells were subjected to a phenylalanine uptake experiment. A buffer containing L-phenylalanine and [3,4,5-3H]-L-phenylalanine was added by 10 μL per well (final concentration of phenylalanine 0.25 mM), and the radioactivity of the plate bottom surface at ordinary temperature was measured with a scintillation counter over time, and the radioactivity value after 100 to 200 min was analyzed. A value obtained by subtracting the B0AT1 non-specific uptake from the control uptake was taken as 100%, and the concentration necessary for each test compound to achieve 50% inhibition (IC50 value) was determined by nonlinear regression using a logistic model.

Chain of Human B0AT1 (Q695T7 whole entry): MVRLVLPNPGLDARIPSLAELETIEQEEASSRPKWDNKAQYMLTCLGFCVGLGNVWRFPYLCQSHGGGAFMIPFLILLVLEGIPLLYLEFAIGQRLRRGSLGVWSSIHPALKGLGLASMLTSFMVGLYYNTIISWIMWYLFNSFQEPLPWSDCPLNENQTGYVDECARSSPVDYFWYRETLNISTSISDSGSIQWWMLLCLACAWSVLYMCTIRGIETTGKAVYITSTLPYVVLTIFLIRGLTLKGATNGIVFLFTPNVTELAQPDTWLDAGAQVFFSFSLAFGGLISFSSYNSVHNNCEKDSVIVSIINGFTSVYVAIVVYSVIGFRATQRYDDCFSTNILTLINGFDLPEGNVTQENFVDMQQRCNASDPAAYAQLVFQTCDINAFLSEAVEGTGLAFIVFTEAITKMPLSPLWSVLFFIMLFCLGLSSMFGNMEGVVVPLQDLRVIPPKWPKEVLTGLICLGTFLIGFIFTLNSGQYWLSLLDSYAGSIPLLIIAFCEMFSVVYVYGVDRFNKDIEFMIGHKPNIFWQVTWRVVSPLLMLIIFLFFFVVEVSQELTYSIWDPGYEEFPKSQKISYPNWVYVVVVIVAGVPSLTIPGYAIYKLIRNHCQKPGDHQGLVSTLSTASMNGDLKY

Compound	IC50
COCCN(Cc1cnccn1)C(=O)CNC(=O)/C=C/c1ccc(C(F)(F)F)cc1 [I-175]	71 nM
COCCN(Cc1ccccn1)C(=O)CNC(=O)/C=C/c1ccc(C(F)(F)F)cc1 [I-50]	81 nM
COCCN(CCOC)C(=O)CNC(=O)/C=C/c1ccc(C(F)(F)F)cc1 [I-4]	285 nM
COCCN(CCS(C)(=O)=O)C(=O)CNC(=O)/C=C/c1ccc(C(F)(F)F)cc1 [I-51]	386 nM
CN(CCS(C)(=O)=O)C(=O)CNC(=O)/C=C/c1ccc(C(F)(F)F)cc1 [I-46]	181 nM
C[C@H]1Cn2nccc2CN1C(=O)CNC(=O)/C=C/c1ccc(C(F)(F)F)cc1 [I-181]	60 nM
COCCN(Cc1cc(OC)ccn1)C(=O)CNC(=O)/C=C/c1ccc(C(F)(F)F)cc1 [I-53]	54 nM
O=C(/C=C/c1ccc(C(F)(F)F)cc1)NCC(=O)N1Cc2cncnc2C1 [I-68]	58 nM
CC1CN(C(=O)CNC(=O)/C=C/c2ccc(C(F)(F)F)cc2)Cc2ccccc21 (stereo not shown) [I-182]	168 nM
COCCN(Cc1cccnn1)C(=O)CNC(=O)/C=C/c1ccc(C(F)(F)F)cc1 [I-59]	503 nM
COc1cc2c(cn1)CN(C(=O)CNC(=O)/C=C/c1ccc(C(F)(F)F)cc1)CC2 [I-92]	20 nM
O=C(/C=C/c1ccc(C(F)(F)F)cc1)NCC(=O)N1CCc2cc(C(=O)O)c(F)cc2C1 [I-262]	435 nM
CNC(=O)[C@@H]1C[C@H](n2cccn2)CN1C(=O)CNC(=O)/C=C/c1ccc(C(F)(F)F)cc1 [I-216]	161 nM
O=C(/C=C/c1ccc(C(F)(F)F)cc1)NCC(=O)N1CCCc2ccccc21 [I-87]	124 nM
CCN(CCOC)C(=O)CNC(=O)/C=C/c1ccc(C(F)(F)F)cc1 [I-5]	262 nM
NS(=O)(=O)c1ccc2c(c1)CCN(C(=O)CNC(=O)/C=C/c1ccc(C(F)(F)F)cc1)C2 [I-220]	43 nM
O=C(/C=C/c1ccc(C(F)(F)F)cc1)NCC(=O)N1CCc2cc(C(=O)O)ccc2C1 [I-277]	143 nM
O=C(/C=C/c1ccc(C(F)(F)F)cc1)NCC(=O)N1Cc2cccnc2C1 [I-65]	70 nM
COCCN(Cc1ncc(C)s1)C(=O)CNC(=O)/C=C/c1ccc(C(F)(F)F)cc1 [I-56]	67 nM
CN1[C@@H]2CC[C@H]1CN(C(=O)CNC(=O)/C=C/c1ccc(C(F)(F)F)cc1)C2 [I-122]	640 nM
CNC(=O)CC(COC)N(CCOC)C(=O)CNC(=O)/C=C/c1ccc(C(F)(F)F)cc1 (stereo not shown) [I-130, 4-methoxy-3-[2-methoxyethyl-[2-[[(E)-3-[4-(trifluoromethyl)phenyl]prop-2-enoyl]amino]acetyl]amino]-N-methylbutanamide]	486 nM
CCC1Cn2ncnc2CN1C(=O)CNC(=O)/C=C/c1ccc(C(F)(F)F)cc1 (stereo not shown) [I-218]	355 nM
COCC(C)N(Cc1nnc(C)o1)C(=O)CNC(=O)/C=C/c1ccc(C(F)(F)F)cc1 (stereo not shown) [I-210]	165 nM
COCCN(Cc1cc(C)n(C)n1)C(=O)CNC(=O)/C=C/c1ccc(C(F)(F)F)cc1 [I-58]	353 nM
COC1CN(C(=O)CNC(=O)/C=C/c2ccc(C(F)(F)F)cc2)Cc2ccc(Br)cc21 (stereo not shown) [I-217]	114 nM
O=C(/C=C/c1ccc(C(F)(F)F)cc1)NCC(=O)N1CCc2c(cccc2C(=O)O)C1 [I-271]	699 nM
O=C(/C=C/c1ccc(C(F)(F)F)cc1)NCC(=O)N1CCc2n[nH]c(=O)cc2C1 [I-81]	53 nM
O=C(/C=C/c1ccc(C(F)(F)F)cc1)NCC(=O)N1CC(=O)NC(c2ccccc2)C1 (single isomer, unassigned) [I-136, (E)-N-[2-oxo-2-[3-oxo-5-phenylpiperazin-1-yl]ethyl]-3-[4-(trifluoromethyl)phenyl]prop-2-enamide]	87 nM
COCCN(CC(=O)N(C)C)C(=O)CNC(=O)/C=C/c1ccc(C(F)(F)F)cc1 [I-149, (E)-N-[2-[[2-(dimethylamino)-2-oxoethyl]-(2-methoxyethyl)amino]-2-oxoethyl]-3-[4-(trifluoromethyl)phenyl]prop-2-enamide]	170 nM
CCc1nnc(CN(CC2(F)CC2)C(=O)CNC(=O)/C=C/c2ccc(C(F)(F)F)cc2)o1 [I-211]	61 nM

Further lines, results first:

IC50	Compound
67 nM	CN(C)C(=O)c1cnn2c1CN(C(=O)CNC(=O)/C=C/c1ccc(C(F)(F)F)cc1)CC2 [I-226]
56 nM	O=C(/C=C/c1ccc(C(F)(F)F)cc1)NCC(=O)N1CCc2ncncc2C1 [I-78]
133 nM	CNC(=O)[C@H]1CN(C)CCN1C(=O)CNC(=O)/C=C/c1ccc(C(F)(F)F)cc1 [I-139, (2R)-N,4-dimethyl-1-[2-[[(E)-3-[4-(trifluoromethyl)phenyl]prop-2-enoyl]amino]acetyl]piperazine-2-carboxamide]
1750 nM	O=C(/C=C/c1ccc(C(F)(F)F)cc1)NCC(=O)N1CCCNC(=O)C1 [I-16]
33 nM	O=C(/C=C/c1ccc(C(F)(F)F)cc1)NCC(=O)N1CCn2ncc(C(=O)N3CCCC3)c2C1 [I-222]
40 nM	CN1CCCN(C(=O)CNC(=O)/C=C/c2ccc(C(F)(F)F)cc2)CC1 [I-3]
64 nM	O=C(/C=C/c1ccc(C(F)(F)F)cc1)NCC(=O)N1CCc2nnccc2C1 [I-99]
94 nM	O=C(/C=C/c1ccc(OC(F)F)cc1)NCC(=O)N1CCn2nccc2C1 [I-89]
141 nM	Cn1cnc2c1CN(C(=O)CNC(=O)/C=C/c1ccc(C(F)(F)F)cc1)C2 [I-67]
111 nM	CN1CCN(C(=O)CNC(=O)/C=C/c2ccc(C(F)(F)F)cc2)CC1c1ccccc1 (stereo not shown) [I-13]
925 nM	CN1CCN(C(=O)CNC(=O)/C=C/c2ccc(OCC3CC3)cc2)CC1 [I-114]
79 nM	O=C(/C=C/c1ccc(C(F)(F)F)cc1)NCC(=O)N1CCn2nc(C(=O)O)c(C3CC3)c2C1 [I-268]
48 nM	Cc1nc2n(n1)CCN(C(=O)CNC(=O)/C=C/c1ccc(C(F)(F)F)cc1)C2 [I-174]
550 nM	CC(=O)N[C@H]1CCN(C(=O)CNC(=O)/C=C/c2ccc(C(F)(F)F)cc2)C1 [I-143, (E)-N-[2-[(3S)-3-acetamidopyrrolidin-1-yl]-2-oxoethyl]-3-[4-(trifluoromethyl)phenyl]prop-2-enamide]
51 nM	O=C(/C=C/c1ccc(C(F)(F)F)cc1)NCC(=O)N1CCn2ncnc2C1 [I-35]
261 nM	CNC(=O)[C@H]1CCN(C(=O)CNC(=O)/C=C/c2ccc(C(F)(F)F)cc2)C1 [I-144, (3S)-N-methyl-1-[2-[[(E)-3-[4-(trifluoromethyl)phenyl]prop-2-enoyl]amino]acetyl]pyrrolidine-3-carboxamide]
78 nM	O=C(/C=C/c1ccc(C(F)(F)F)cc1)NCC(=O)N1CCc2[nH]nnc2C1 [I-98]
29 nM	Cn1cnc2c1CN(C(=O)CNC(=O)/C=C/c1ccc(C(F)(F)F)cc1)CC2 [I-40]
23 nM	COc1nccc2c1CCN(C(=O)CNC(=O)/C=C/c1ccc(C(F)(F)F)cc1)C2 [I-90]

IC50	Compound
267 nM	CN1CCN(C(=O)CNC(=O)/C=C/c2ccc(OCC(F)(F)C(F)F)cc2)CC1 [I-109]
64 nM	Cn1cc2c(n1)CCN(C(=O)CNC(=O)/C=C/c1ccc(C(F)(F)F)cc1)C2 [I-82]
720 nM	CCOC(=O)N1CCN(C(=O)CNC(=O)/C=C/c2ccc(C(F)(F)F)cc2)CC1 [I-27]
81 nM	Cc1nnc([C@H]2CN(C)CCN2C(=O)CNC(=O)/C=C/c2ccc(C(F)(F)F)cc2)o1 [I-121]
24 nM	CC1CN(C(=O)CNC(=O)/C=C/c2ccc(C(F)(F)F)cc2)CCN1C (stereo not shown) [I-6]
56 nM	CN1CCN(C(=O)CNC(=O)/C=C/c2ccc(OC(F)(F)F)cc2)CC1 [I-112]
53 nM	O=C(/C=C/c1ccc(C(F)(F)F)cc1)NCC(=O)N1CCc2[nH]ncc2C1 [I-76]
45 nM	CNC(=O)c1cc2n(n1)CCN(C(=O)CNC(=O)/C=C/c1ccc(C(F)(F)F)cc1)C2 [I-203]
26 nM	O=C(/C=C/c1ccc(C(F)(F)F)cc1)NCC(=O)N1CCn2nc(C(F)F)cc2C1 [I-282, (E)-N-[2-[2-(difluoromethyl)-6,7-dihydro-4H-pyrazolo [1,5-a]pyrazin-5-yl]-2-oxoethyl]-3-[4-(trifluoromethyl)phenyl]prop-2-enamide]
406 nM	CN1CCN(C(=O)CNC(=O)/C=C/c2ccc(C(F)(F)F)cc2)[C@@H](C(=O)N(C)C)C1 [I-138, (2R)-N,N,4-trimethyl-1-[2-[[(E)-3-[4-(trifluoromethyl)phenyl]prop-2-enoyl]amino]acetyl]piperazine-2-carboxamide]
38 nM	CN1CCN(C(=O)CNC(=O)/C=C/c2ccc(-c3ccc(F)cc3)cc2)CC1 [I-126, (E)-3-[4-(4-fluorophenyl)phenyl]-N-[2-(4-methylpiperazin-1-yl)-2-oxoethyl]prop-2-enamide]
317 nM	O=C(/C=C/c1ccc(C(F)(F)F)cc1)NCC(=O)N1CCCn2ncnc2C1 [I-72]
50 nM	CC(O)c1cc2n(n1)CCN(C(=O)CNC(=O)/C=C/c1ccc(C(F)(F)F)cc1)C2 (stereo not shown) [I-208]
276 nM	CC(C)c1ccc(/C=C/C(=O)NCC(=O)N2CCN(C)CC2)cc1 [I-106]
137 nM	CN1CCN(C(=O)CNC(=O)/C=C/c2ccc(OC(F)(F)F)cc2)CC1=O [I-118]
112 nM	O=C(/C=C/c1ccc(C(F)(F)F)cc1)NCC(=O)N1CCn2cncc2C1 [I-23]
125 nM	O=C(/C=C/c1ccc(C(F)(F)F)cc1)NCC(=O)N1CCn2nc(C(=O)O)cc2C1 [I-273]
81 nM	O=C(/C=C/c1ccc(C(F)(F)F)cc1)NCC(=O)N1CCN(CCO)CC1 [I-25]
